Measured values as given in PMC10630888, “Nuclear ERK1/2 signaling potentiation enhances neuroprotection and cognition via Importinα1/KPNA2” (EMBO Molecular Medicine, 2023).
Values joined by “and” are separate entries in the source; they are usually repeats but may differ in a detail not shown here. Identical values can stand only once.

Experiments:
[1] = tested on: SC-CA1 synapses, CA1 pyramidal neurons; test: Whole-cell patch clamp, EPSCs at SC-CA1 synapses in hippocampal slices; format: cell-based, rat; settings: peptide 50 μM in intracellular solution, 30–35 min, mean, RB5 n = 12 cells, Scr n = 8 cells, 4 animals
pERK in CA1 = test: pERK in hippocampal CA1 of Tg2576 mice; format: in vivo, mouse; settings: for pERK in hippocampal CA1 (Fig 5 panel j): individual animals
Method: Immunohistochemistry was performed as described in Papale et al ([2016]). Briefly, 1 h after blocking in 5% normal goat serum and 0.1% Triton X‐100 solution, free‐floating sections were incubated overnight at 4°C with one of the following primary antibodies: anti‐phospho‐p44/42 MAP kinase (Thr202/Tyr204) (1:200, Cell Signaling Technology #9101), anti‐phospho–Elk‐1 (Ser383) (1:100, Cell Signaling #9181), anti‐phospho‐Kv4.2 (Thr607)‐R (1:100, Santa Cruz sc22254‐R), anti‐phospho‐MSK‐1 (1:100 Cell Signaling Technology #9595), anti‐phospho‐MEK1/2 (Ser218/222) (1:100, sc‐7995 Santa Cruz Biotechnology), c‐Fos (1:100, sc‐52 Santa Cruz Biotechnology), tyrosine Hydroxylase (monoclonal 1:1,000, Sigma Aldrich, Italy) and anti‐DARPP‐32 (H3) (1:100, Santa Cruz Biotechnology, #sc‐271111) overnight at 4°C. Sections were then incubated with biotinylated goat anti‐rabbit IgG (1:200, Vector Laboratories) or biotinylated goat anti‐mouse (1:200, Vector Laboratories) for 2 h. The classic avidin‐peroxidase complex (ABC, Vector, UK) protocol was applied, using 3,3′‐diaminobenzidine (DAB, Sigma) as a chromogen.
Tg2576 mice were administered with RB5 or Scramble (20 mg/kg i.p.) for either 7 days, for IHC analysis, or with a single injection (20 mg/kg i.p.), for behavioral analysis.

mutant huntingtin (mHtt) = test: Mutant huntingtin inclusions in striatum of zQ175 females after RB5; format: in vivo, mouse; settings: RB5 for 9 days
Method: Immunofluorescence was performed as described in Papale et al ([2016]). Briefly, 1 h after blocking in 5% normal goat serum, slices were incubated overnight at 4°C with the following primary antibodies: anti‐phospho (Ser10)‐acetylated (Lys14) histone H3 (1:1,000, Millipore), anti‐phospho‐S6 ribosomal protein (Ser235/236) (1:200, Cell Signaling Technology) anti‐phospho‐S6 ribosomal protein (Ser240/244) (1:200, Cell Signaling), cleaved caspase‐3 (1:200, Cell Signaling Technology), anti‐mutant Huntingtin (1:100, Developmental Studies Hybridoma Bank, University of Iowa, #MW8), and NeuN (1:1,000, Millipore). […]
In ex‐vivo and in‐vivo immunofluorescence experiments, the number of p‐S6 or p‐AcH3 immunoreactive neurons among NeuN‐positive neurons was counted in 2–3 consecutive striatal sections per mouse in four fields per section. Caspase 3‐positive cells were quantified among NeuN‐positive neurons in each slide and expressed as percentage (ratio between caspase‐3‐positive cells and total NeuN‐positive neurons) for each field acquired through the slide. The number of cells showing mutant Huntingtin inclusions were expressed as a percentage of mutant Huntingtin‐positive cells among DAPI‐positive cells. […]

[2] = tested on: phospho-ERK1/2 in HEK293 cells; test: phospho-ERK1/2 immunofluorescence (nuclear) in HEK293 cells; format: cell-based; settings: HEK293, siRNA 200 nM 24 h, then RB5 50 μM 15 min
Method: For Western blot and immunofluorescence analysis, 0.6 × 10^6 HEK293 cells were seeded in 6‐well plates in the presence of DMEM High Glucose GlutaMax (Thermo Fisher Scientific) containing 10% Foetal Bovine Serum (FBS, Thermo Fisher Scientific) and 100 U/ml penicillin/streptomycin (Thermo Fisher Scientific). For Western blot analysis to assess ERK1/2 and phospho‐ERK1/2 levels, cells were serum starved for 24 h and incubated with RB5 50 μM or FBS 20% for 15 min at 37°C. To assess JNK and phospho‐JNK levels, cells were incubated with RB5 50 μM or anisomycin 5 μM for 30 min at 37°C. For immunofluorescence analysis, cells were serum‐starved for 24 h and incubated with 50 μM RB5 or 20% FBS for 15 min at 37°C.
After rinsing in PBS, cells were fixed in 4% PFA and permeabilized with increasing concentrations of methanol (33, 50, 75, and 95% in PBS, 2 min each at room temperature), followed by 100% methanol for 10 min at −20°C. […] The mean fluorescence intensity in the nucleus was calculated automatically by Fiji‐ImageJ software in 8–10 fields per slide. […]

Substance	Average EPSC amplitude over last 5 min of recording, normalized to first minute [1]	Average EPSC amplitude over last 5 min of recording, normalized to first minute ([1]; listed as Scr)	ERK phosphorylation in hippocampal CA1 (pERK in CA1; Tg2576 mice, 7 months old, 20 mg/kg i.p. for 7 days)	pERK in hippocampal CA1 (Fig 5 panel j) (pERK in CA1; Tg2576 mice)	pERK in hippocampal CA1 (Fig 5 panel j) (pERK in CA1; WT mice)	mHtt aggregation in striatum (mutant huntingtin (mHtt))	ERK1/2 activation (nuclear phospho-ERK1/2) after KPNA2 or IPO7 downregulation [2]
SCR: ineffective Scramble version of RB5 containing a TAT sequence (GRKKRRQRRRPPRVGPGVPEGVGVAVFGVKEPGQTGDVGPVGE) [reference compound]	had no effect	0.9389					
GRKKRRQRRRPPQGGGGGEPRRTEGVGPGVPGEVEMVKGQPFDV [RB5, six D-amino acids, acetylated N-terminus]			restored ERK phosphorylation	12.58 and 9.08 and 13.47 and 9.49 and 10.2 and 10.95 and 9.29 and 11.78	8.46 and 10.53 and 9.48 and 11.97 and 13.27 and 10.48 and 8.7	insufficient to attenuate the mHtt aggregation	failed to induce ERK1/2 activation
